Measured values reported in paper PMC5423974 (European Journal of Clinical Pharmacology, 2017).
Where “and” joins values, the source holds several entries; their conditions need not be identical. Equal values may be shown once. Read-outs that look alike come from different tables or passages of the source. Marks after values point to notes of the source that are not given here.

How the values were obtained:
[1] = Dose-exposure proportionality of AUC and Cmax (Power model, scatter plots); type: in vivo, human
Method: Dose-exposure proportionality for AUC and Cmax was assessed for non-Japanese Asian subjects using data from Study 86, and for the pooled analysis Western group by applying the Power model to data from the pooled analysis: Log(Y) = α + β•log(Dose) + ε, where Y = AUC or Cmax. Intercept and slope estimates (including point estimate, standard error, and 90% confidence interval [CI]) were provided for each parameter, and dose proportionality plots were generated for AUC and Cmax. All statistical analyses were performed using SAS version 9.2.

[2] = Pooled analysis of non-compartmental plasma PK of single-dose selumetinib in healthy subjects, by ethnicity; type: in vivo, human; settings: for DN AUC / DN AUC(0–12) / DN Cmax: geometric mean (%CV)
Method: All the studies included in the pooled analysis were conducted in accordance with the ethical principles outlined in the Declaration of Helsinki and the International Council on Harmonization Good Clinical Practice. Written informed consent was obtained from all subjects prior to any study-related procedures.
The pooled analysis database was constructed using data collected in 10 studies (Online Resource 1). PK data were taken from Study 86 (Asian study) and Studies 66, 69, 71, 78, 80, 81, 82, 83 and 85 (Western studies), while pharmacogenetic data were obtained from Study 86 (Asian study) and Studies 66 and 83 (Western studies). Informed consent for genetic assessment was as follows: Study 66, 21 of 27 volunteers gave consent (one of these volunteers discontinued treatments); Study 83, all 26 volunteers gave consent; Study 86, 45 of 72 volunteers gave consent.
Further inclusion criteria for the database included fasted subjects dosed with the selumetinib capsule formulation used for Phase III. This meant exclusion of data from other oral formulations used in study 78 and intravenous formulation used in study 80. Data were included solely from study arms where there was an absence of other treatments (e.g. rifampicin, fluconazole) and from subjects with normal renal and hepatic function.
A merged dataset containing subject identifier, non-compartmental PK parameters and demographics was constructed.
The PK parameters AUC, AUC0–12 and Cmax were normalized (abbreviated as DN) for each subject, by dividing the specific PK parameter by the nominal dose (in mg units) and for dose per kg of body weight (abbreviated as DWN) using the following formula: PK parameter value / (nominal dose in mg units / subjects baseline body weight in kg units).
The majority of subjects in the Western studies were of White ethnicity, thus this formed the reference category for comparison. Statistical comparisons of selumetinib PK were undertaken between the following ethnic groups: Western vs All Asian; White vs Black; White vs All Asian; White vs Japanese; White vs non-Japanese Asian; White vs Indian. The comparisons were performed by fitting multivariate models to the PK parameters of interest (e.g. dose-normalized AUC and Cmax), with a stepwise backward selection of the covariates including ethnicity, age, sex, and weight.
Bioanalysis was performed by Covance, USA. […] After addition of deuterated internal standard, samples were extracted by protein precipitation by the addition of 4 volumes of methanol:acetonitrile. After centrifugation, the supernatants were […] to dryness under nitrogen at 50°C and reconstituted in methanol;water before analysis. Extraction recovery was approximately 93%. […] The typical liquid chromatography system was a Prominence SIL-20AC (Shimadzu, Tokyo, Japan). A Phenomenex Luna C18 column was used and maintained at 30°C. A gradient mobile phase system was used with 0.1% formic acid in water (A) or acetonitrile (B) with a flow rate of 0.500 mL/min and the gradient running from 25% B to 65% B over 2 minutes then increasing to 95% B over 0.1 minutes and held for 0.5 minutes before re-equilibration. The mass spectrometer used was an API 5000 or 5500 triple quadruple mass spectrometer (AB Sciex, Foster City, CA, USA). This was run in positive electrospray, multiple reaction monitoring, with an ionspray voltage of 5500 V and TurboIonSpray temperature of 600°C with transitions of 459.0/397.2 monitored.

[3] = tested on: UDP glucuronosyltransferase family 1 member A1 (UGT1A1); parameters: method as in earlier work; settings: ref 1 Report nos. Be000021–21 and D6244 KMN036, data on file, AstraZeneca; cited from earlier work
[4] = tested on: cytochrome P450 2C19 (CYP2C19); parameters: method as in earlier work; settings: ref 1 Report nos. Be000021–21 and D6244 KMN036, data on file, AstraZeneca; cited from earlier work
[5] = All Asian (N = 72), healthy subjects, single dose, doses pooled
[6] = All Asian group compared with Western group
[7] = Black (N = 87), healthy subjects, single dose, doses pooled
[8] = Indian (N = 9), healthy subjects, single dose
[9] = Japanese (N = 27), healthy subjects, single dose, doses pooled
[10] = Western (N = 236), healthy subjects, single dose, doses pooled
[11] = White (N = 149), healthy subjects, single dose, doses pooled
[12] = non-Japanese Asian (N = 36), healthy subjects, single dose, doses pooled
[13] = non-Japanese Asian compared to White

## Cn1cnc2c(F)c(Nc3ccc(Br)cc3Cl)c(C(=O)NOCCO)cc21 [selumetinib, Selumetinib]
[1]; Western group, single doses of 25 to 75 mg
  dose-exposure proportionality (visual assessment of scatter plots, AUC and Cmax): Approximate dose proportionality
[1]; non-Japanese Asian group, 25 to 50 mg
  dose-exposure proportionality (visual assessment of scatter plots, AUC and Cmax): approximate dose proportionality
[2]; [5]
  DN AUC: 79.8 ng.h/mL/mg and 79.8 (23.6) ng.h/mL/mg
  DN AUC(0–12): 61.7 ng.h/mL/mg and 61.7 (24.6) ng.h/mL/mg
  DN Cmax: 26.3 (30.9) ng/mL/mg
[2]; All Asian (N = 72), healthy subjects, single dose, median (min, max)
  tmax: 1.0 (1, 4) h
[2]; [6]
  percentage by which dose-normalized AUC is higher: 35%
  percentage by which dose-normalized Cmax is higher: 39%
[2]; Asian subjects compared with Western subjects, single dose 25 to 75 mg
  dose-normalized selumetinib exposure higher: 35–39%
[2]; [7]
  DN AUC: 53.4 ng.h/mL/mg and 53.4 (26.4) ng.h/mL/mg
  DN AUC(0–12): 43.3 ng.h/mL/mg and 43.3 (26.7) ng.h/mL/mg
  DN Cmax: 16.9 (39.6) ng/mL/mg
[2]; Black (N = 87), healthy subjects, single dose, median (min, max)
  tmax: 1.0 (1, 4) h
[2]; [8]
  DN AUC: 69.5 ng.h/mL/mg and 69.5 (16.7) ng.h/mL/mg
  DN AUC(0–12): 53.5 ng.h/mL/mg and 53.5 (19.6) ng.h/mL/mg
  DN Cmax: 28.1 (16.0) ng/mL/mg
[2]; Indian (N = 9), healthy subjects, single dose, median (min, max)
  tmax: 1.0 (1, 2) h
[2]; Indian compared to White
  percentage increase in geomean dose-normalized AUC: 22%
  percentage increase in geomean dose-normalized Cmax: 41%
[2]; [9]
  DN AUC: 84.8 ng.h/mL/mg and 84.8 (21.0) ng.h/mL/mg
  DN AUC(0–12): 65.7 ng.h/mL/mg and 65.7 (24.1) ng.h/mL/mg
  DN Cmax: 28.7 (31.0) ng/mL/mg
[2]; Japanese (N = 27), healthy subjects, single dose, median (min, max)
  tmax: 1.0 (1, 3) h
[2]; Japanese compared to White
  percentage increase in geomean dose-normalized AUC: 51%
  percentage increase in geomean dose-normalized Cmax: 45%
[2]; Western (N = 235), healthy subjects, single dose, doses pooled
  DN AUC: 52.4 ng.h/mL/mg and 52.4 (24.9)^‡ ng.h/mL/mg
[2]; Western (N = 235), healthy subjects, single dose, arithmetic mean (SD)
  t1/2: 9.1 (2.91)^‡ h
[2]; [10]
  DN AUC(0–12): 42.9 ng.h/mL/mg and 42.9 (25.1) ng.h/mL/mg
  DN Cmax: 17.4 (35.6) ng/mL/mg
[2]; Western (N = 236), healthy subjects, single dose, median (min, max)
  tmax: 1.0 (1, 4) h
[2]; White (N = 148), healthy subjects, single dose, 25-75 mg doses pooled
  DN AUC: 51.9 ng.h/mL/mg and 51.9 (23.9)^† ng.h/mL/mg
[2]; [11]
  DN AUC(0–12): 42.7 ng.h/mL/mg and 42.7 (24.2) ng.h/mL/mg
  DN Cmax: 17.7 (33.2) ng/mL/mg
[2]; White (N = 149), healthy subjects, single dose, median (min, max)
  tmax: 1.0 (1, 4) h
[2]; human, plasma, oral, 25 mg, Indian (N = 9), healthy subjects, single dose, arithmetic mean (SD)
  half-life: 9.5 h
[2]; human, plasma, oral, All Asian (N = 72), healthy subjects, single dose, arithmetic mean (SD)
  half-life: 10.4 h
[2]; human, plasma, oral, Black (N = 87), healthy subjects, single dose, arithmetic mean (SD)
  half-life: 8.7 h
[2]; human, plasma, oral, Japanese (N = 27), healthy subjects, single dose, arithmetic mean (SD)
  half-life: 11.5 h
[2]; human, plasma, oral, White (N = 148), healthy subjects, single dose, arithmetic mean (SD)
  half-life: 9.3 h
[2]; human, plasma, oral, all ethnic groups, read-out: median tmax
  tmax: 1 to 1.6 h
[2]; human, plasma, oral, non-Japanese Asian (N = 36), healthy subjects, single dose, arithmetic mean (SD)
  half-life: 9.8 h
[2]; human, plasma, oral, non-Japanese Asian (N = 36), healthy subjects, single dose, median (min, max), read-out: tmax
  tmax: 1.6 h
[2]; [12]
  DN AUC: 78.9 ng.h/mL/mg and 78.9 (25.4) ng.h/mL/mg
  DN AUC(0–12): 61.1 ng.h/mL/mg and 61.1 (24.6) ng.h/mL/mg
  DN Cmax: 24.3 (32.3) ng/mL/mg
[2]; non-Japanese Asian and Indian against Japanese
  differences in the geomeans for dose-normalized AUC and dose-normalized Cmax: 2 to 18%
[2]; [13]
  percentage increase in geomean dose-normalized AUC: 37%
  percentage increase in geomean dose-normalized Cmax: 20%
[3]
  substrate of enzyme: substrate
[4]
  substrate of enzyme: substrate
